Results reported in PubChem BioAssay AID1963832 (Molecular Pharmacology Branch, DTP, NCI, 2024).

System: 885724-159-R-J1-PDC complex spheroid viability
Test: Anticancer human tumor 885724-159-R-J1-PDC patient-derived pancreatic adenocarcinoma cell line growth inhibition [POLQ]
Details: for IC50: curve of first compound; for viability, T/C: stronger effect = lower value
Experimental: Multicellular complex tumor spheroid response to Polymerase (POL) inhibitors (novobiocin, ART-558, RP6685) in combination with a variety of drugs and investigational agents in selected tumor cell lines
The POL inhibitors (novobiocin, ART-558, and RP6685) were evaluated both individually and in combination with standard of care and investigational anticancer small molecules within a complex spheroid model of solid tumors. . Complex spheroids include a stromal component modeled by human endothelial cells (HUVEC) and fibroblasts modeled by human mesenchymal stem cells (MSCs). The concentration ranges selected for each drug and investigational agent were based upon clinically achievable concentrations if the clinical Cmax of the agent was known.
Compounds. The drugs and investigational agents: novobiocin (NSC847541), ART-558 (NSC835418), RP-6685 (NSC848927), peposertib (NSC802822), ceralasertib (NSC780249), elimusertib (NSC800525), camonsertib (NSC841442), AZD-1390 (NSC803789), olaparib (NSC753686), talazoparib (NSC767125), rucaparib (NSC756644), sotorasib (NSC818433), MRTX-1133 (NSC836407), SN-38 (NSC673596), topotecan (NSC609699), epotoside (NSC141540), doxorubicin (NSC123127), gemcitabine (NSC613327), 5-fluorouracil (NSC19893), paclitaxel (NSC125973), vemurafenib (NSC761431), MSA-2 (NSC828583), SN-011 (NSC837082), adavosertib (NSC754352), prexasertib (NSC758257), carboplatin (NSC241240) and oxaliplatin (NSC266046), were obtained from the National Cancer Institute (NCI) Developmental Therapeutics Program Chemical Repository (21). The FDA-approved anticancer drug set is available from the Developmental Therapeutics Program at https://dtp.cancer.gov/organization/dscb/obtaining/. […] The stock solutions were prepared in dimethyl sulfoxide (DMSO, Sigma-Aldrich, St. Louis, MO, cat. D2650), except for the platinum compounds which were prepared in saline (Quality Biological, Gaithersburg, MD, cat. 114-055-101), at 800-fold the tested concentration and stored at -70 degrees C prior to their use. All drugs and investigational agents were tested over a range starting from a high concentration at or near the clinical Cmax and decreasing in half-log increments. If the clinical Cmax for an agent had not been determined, the highest concentration tested was 10 microM, except for SN-38, which was tested at a high concentration of 1 microM.
Cell Culture. All cells were maintained in an incubator at 37 degrees C and 5% CO2 with 95% humidity. The PDC lines were cultured according to standard operating procedures established by the NCI PDMR (https://pdmr.cancer.gov). Table 3 of the manuscript, lists the cell lines along with the number of the three cell types plated to form the mct-spheroids and media for tumor cell growth. After thawing, all PDC lines, except 997537-175-T-J1-PDC and 415267-285-R-J2-PDC, were cultured in Matrigel-coated flasks prepared with a working solution of 1X Ham's F-12 nutrient mix, without supplementation (Thermo Fisher Scientific, cat. 11765054), 100 U/mL penicillin-streptomycin (Thermo Fisher Scientific, cat. 15140122), and 2.5% Matrigel (Corning Inc., Corning, NY, cat. 354248) for the first three passages. The two PDC lines 997537-175-T-J1-PDC and 415267-285-R-J2-PDC were cultured on uncoated flasks. The 857933-349-R-J2-PDC line was cultured in 6C/Colon 1B media containing advanced DMEM/F-12 (Thermo Fisher Scientific, cat. 12634028), 10 mM HEPES (Thermo Fisher Scientific, cat. 15630080), 1X GlutaMAX supplement (Thermo Fisher Scientific, cat. 35050061), 0.1 mg/mL primocin (InvivoGen, San Diego, CA, cat. ant-pm-2), 10% defined fetal bovine serum, heat inactivated (HyClone Laboratories Inc., Logan, UT, cat. SH30070.03HI), 50% L-WRN conditioned media (ATCC, cat. CRL-3276), 1.25 mM N-Acetyl-L-cysteine (Sigma-Aldrich, cat. A9165), 10 mM nicotinamide (Sigma-Aldrich, cat. N0636), 1X B-27 supplement (Thermo Fisher Scientific, cat. 17504044), 1X N-2 supplement (Thermo Fisher Scientific, cat. […]

[1] = second compound 0.0316 µM, first compound 0.0316 µM
[2] = second compound 0.0316 µM, first compound 0.1 µM
[3] = second compound 0.0316 µM, first compound 0.316 µM
[4] = second compound 0.0316 µM, first compound 1 µM
[5] = second compound 0.0316 µM, first compound 3.16 µM
[6] = second compound 0.0316 µM, first compound 10 µM
[7] = second compound 0.1 µM, first compound 0.0316 µM
[8] = second compound 0.1 µM, first compound 0.1 µM
[9] = second compound 0.1 µM, first compound 0.316 µM
[10] = second compound 0.1 µM, first compound 1 µM
[11] = second compound 0.1 µM, first compound 3.16 µM
[12] = second compound 0.1 µM, first compound 10 µM
[13] = second compound 0.316 µM, first compound 0.0316 µM
[14] = second compound 0.316 µM, first compound 0.1 µM
[15] = second compound 0.316 µM, first compound 0.316 µM
[16] = second compound 0.316 µM, first compound 1 µM
[17] = second compound 0.316 µM, first compound 3.16 µM
[18] = second compound 0.316 µM, first compound 10 µM
[19] = second compound 1 µM, first compound 0.0316 µM
[20] = second compound 1 µM, first compound 0.1 µM
[21] = second compound 1 µM, first compound 0.316 µM
[22] = second compound 1 µM, first compound 1 µM
[23] = second compound 1 µM, first compound 3.16 µM
[24] = second compound 1 µM, first compound 10 µM
[25] = second compound 3.16 µM, first compound 0.0316 µM
[26] = second compound 3.16 µM, first compound 0.1 µM
[27] = second compound 3.16 µM, first compound 0.316 µM
[28] = second compound 3.16 µM, first compound 1 µM
[29] = second compound 3.16 µM, first compound 3.16 µM
[30] = second compound 3.16 µM, first compound 10 µM
[31] = second compound 10 µM, first compound 0.0316 µM
[32] = second compound 10 µM, first compound 0.1 µM
[33] = second compound 10 µM, first compound 0.316 µM
[34] = second compound 10 µM, first compound 1 µM
[35] = second compound 10 µM, first compound 3.16 µM
[36] = second compound 10 µM, first compound 10 µM
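Further: spheroids exposed to compounds for 7 days.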

Structure (SMILES): CC(C)n1c(=O)n(C)c2cnc3cc(F)c(-c4ccc(OCCCN5CCCCC5)nc4)cc3c21 + COC1C(OC(N)=O)C(O)C(Oc2ccc3c(O)c(NC(=O)c4ccc(O)c(CC=C(C)C)c4)c(=O)oc3c2C)OC1(C)C
- IC50 (second compound 0.0316 µM): > 10000 nM
- IC50 (second compound 0.1 µM): > 10000 nM
- IC50 (second compound 0.316 µM): > 10000 nM
- IC50 (second compound 1 µM): > 10000 nM
- IC50 (second compound 3.16 µM): > 10000 nM
- IC50 (second compound 10 µM): > 10000 nM
- viability, T/C [1]: 89.6%
- viability, T/C [2]: 89.6%
- viability, T/C [3]: 97.5%
- viability, T/C [4]: 88.9%
- viability, T/C [5]: 88.3%
- viability, T/C [6]: 84.4%
- viability, T/C [7]: 96.5%
- viability, T/C [8]: 99.4%
- viability, T/C [9]: 100%
- viability, T/C [10]: 100%
- viability, T/C [11]: 91.1%
- viability, T/C [12]: 105%
- viability, T/C [13]: 99.4%
- viability, T/C [14]: 86.6%
- viability, T/C [15]: 93.5%
- viability, T/C [16]: 93.7%
- viability, T/C [17]: 91.8%
- viability, T/C [18]: 86.1%
- viability, T/C [19]: 104%
- viability, T/C [20]: 96.5%
- viability, T/C [21]: 104%
- viability, T/C [22]: 90%
- viability, T/C [23]: 97%
- viability, T/C [24]: 77.8%
- viability, T/C [25]: 99.5%
- viability, T/C [26]: 92.5%
- viability, T/C [27]: 94.3%
- viability, T/C [28]: 98%
- viability, T/C [29]: 98.7%
- viability, T/C [30]: 93.2%
- viability, T/C [31]: 100%
- viability, T/C [32]: 94.9%
- viability, T/C [33]: 114%
- viability, T/C [34]: 91.9%
- viability, T/C [35]: 88.8%
- viability, T/C [36]: 93.2%

Structure (SMILES): CC1COCCN1c1cc(C2(O)CC3CCC(C2)O3)c2cnn(-c3ccn[nH]3)c2n1 (centres undefined) + COC1C(OC(N)=O)C(O)C(Oc2ccc3c(O)c(NC(=O)c4ccc(O)c(CC=C(C)C)c4)c(=O)oc3c2C)OC1(C)C
- IC50 (second compound 0.0316 µM): 139 nM
- IC50 (second compound 0.1 µM): 150 nM
- IC50 (second compound 0.316 µM): 98.2 nM
- IC50 (second compound 1 µM): 139 nM
- IC50 (second compound 3.16 µM): 96 nM
- IC50 (second compound 10 µM): 102 nM
- viability, T/C [1]: 74.7%
- viability, T/C [2]: 49.8%
- viability, T/C [3]: 38.8%
- viability, T/C [4]: 41.8%
- viability, T/C [5]: 31.5%
- viability, T/C [6]: 23.2%
- viability, T/C [7]: 73.3%
- viability, T/C [8]: 51.4%
- viability, T/C [9]: 40%
- viability, T/C [10]: 41.4%
- viability, T/C [11]: 31.9%
- viability, T/C [12]: 24.7%
- viability, T/C [13]: 63.1%
- viability, T/C [14]: 50.4%
- viability, T/C [15]: 39%
- viability, T/C [16]: 34.8%
- viability, T/C [17]: 32.5%
- viability, T/C [18]: 28.6%
- viability, T/C [19]: 75.1%
- viability, T/C [20]: 52%
- viability, T/C [21]: 39.7%
- viability, T/C [22]: 38.1%
- viability, T/C [23]: 31.2%
- viability, T/C [24]: 25.4%
- viability, T/C [25]: 68.1%
- viability, T/C [26]: 44.8%
- viability, T/C [27]: 42.5%
- viability, T/C [28]: 35.8%
- viability, T/C [29]: 31.8%
- viability, T/C [30]: 26.4%
- viability, T/C [31]: 61.1%
- viability, T/C [32]: 50.5%
- viability, T/C [33]: 40.8%
- viability, T/C [34]: 34.5%
- viability, T/C [35]: 34.9%
- viability, T/C [36]: 26.3%
